Measured values as given in PubChem BioAssay AID256 (DTP/NCI, 2004).
Several values for one entry are separate records, joined by “and”; a condition that tells them apart may be missing. Identical values can stand only once. Inconclusive results and toxic doses are left out. The calls were made as follows: active = survival T/C of 150% or more; inactive = T/C below 125% in these data.

Test system: CD2F1 mice, L1210 leukemia ip, survival T/C
Test: NCI In Vivo Anticancer Drug Screen. Data for tumor model L1210 Leukemia (intraperitoneal) in CD2F1 (CDF1) mice
Settings: higher = longer survival
Summary of the method: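 Each value reflects a quotient of treated over vehicle control outcomes in mice with a transplanted tumor.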

[1] = endpoint: mean survival time, dose: 25.0 mg/kg/injection, schedule: Q01DX009 (ip), vehicle: other
[2] = endpoint: mean survival time, dose: 50.0 mg/kg/injection, schedule: Q01DX009 (ip), vehicle: other
[3] = endpoint: mean survival time, dose: 100.0 mg/kg/injection, schedule: Q01DX009 (ip), vehicle: other
[4] = endpoint: mean survival time, dose: 100.0 mg/kg/injection, schedule: Q01DX001 (ip), vehicle: saline with Tween-80
[5] = endpoint: mean survival time, dose: 200.0 mg/kg/injection, schedule: Q01DX001 (ip), vehicle: saline with Tween-80
[6] = endpoint: mean survival time, dose: 400.0 mg/kg/injection, schedule: Q01DX001 (ip), vehicle: saline with Tween-80
[7] = endpoint: mean survival time, dose: 50.0 mg/kg/injection, schedule: Q01DX009 (ip), vehicle: saline with Tween-80
[8] = endpoint: mean survival time, dose: 100.0 mg/kg/injection, schedule: Q01DX009 (ip), vehicle: saline with Tween-80
[9] = endpoint: mean survival time, dose: 200.0 mg/kg/injection, schedule: Q01DX009 (ip), vehicle: saline with Tween-80
[10] = endpoint: mean survival time, dose: 100.0 mg/kg/injection, schedule: Q04DX003 (ip), vehicle: saline with Tween-80
[11] = endpoint: mean survival time, dose: 12.5 mg/kg/injection, schedule: Q04DX002 (ip), vehicle: saline with Tween-80
[12] = endpoint: mean survival time, dose: 25.0 mg/kg/injection, schedule: Q04DX003 (ip), vehicle: other
[13] = endpoint: mean survival time, dose: 50.0 mg/kg/injection, schedule: Q04DX003 (ip), vehicle: other
[14] = endpoint: mean survival time, dose: 100.0 mg/kg/injection, schedule: Q04DX003 (ip), vehicle: other
[15] = endpoint: mean survival time, dose: 200.0 mg/kg/injection, schedule: Q04DX003 (ip), vehicle: other
[16] = endpoint: mean survival time, dose: 400.0 mg/kg/injection, schedule: Q01DX009 (ip), vehicle: saline with Tween-80
[17] = endpoint: mean survival time, dose: 200.0 mg/kg/injection, schedule: Q04DX003 (ip), vehicle: saline with Tween-80
[18] = endpoint: mean survival time, dose: 400.0 mg/kg/injection, schedule: Q04DX003 (ip), vehicle: saline with Tween-80
[19] = endpoint: mean survival time, dose: 25.0 mg/kg/injection, schedule: Q04DX002 (ip), vehicle: saline with Tween-80

Measured: T/C

Cc1cc(CBr)c(O)c(CBr)c1
inactive: [1] 101 % of control | [2] 93 % of control | [3] 104 % of control

CCCCCCCCCCCCCCOc1ccc(OCCCCCCCCC)cc1
inactive: [4] 94 % of control | [5] 94 % of control | [6] 95 % of control

O=C(O)CCCCCSc1nn(C2OC(CO)C(O)C2O)c(=O)[nH]c1=O (stereo not drawn)
inactive: endpoint: mean survival time, dose: 12.5 mg/kg/injection, schedule: Q01DX005 (ip), vehicle: distilled water + Tween-80 112 % of control | endpoint: mean survival time, dose: 25.0 mg/kg/injection, schedule: Q01DX005 (ip), vehicle: distilled water + Tween-80 104 % of control | endpoint: mean survival time, dose: 50.0 mg/kg/injection, schedule: Q01DX005 (ip), vehicle: distilled water + Tween-80 104 % of control | endpoint: mean survival time, dose: 100.0 mg/kg/injection, schedule: Q01DX005 (ip), vehicle: distilled water + Tween-80 104 % of control | endpoint: mean survival time, dose: 200.0 mg/kg/injection, schedule: Q01DX005 (ip), vehicle: distilled water + Tween-80 104 % of control

CC/C(=C\C=C\N(C)C)C(=O)OC
inactive: [7] 100 % of control | [8] 100 % of control | [9] 105 % of control

C[n+]1ccc(Nc2ccc(NC(=O)c3ccc(Nc4cc[n+](C)c5ccc([N+](=O)[O-])cc45)cc3[N+](=O)[O-])cc2)cc1
active: endpoint: mean survival time, dose: 178.0 mg/kg/injection, schedule: Q04DX003 (ip), vehicle: saline with Tween-80 152 % of control | endpoint: mean survival time, dose: 266.0 mg/kg/injection, schedule: Q04DX003 (ip), vehicle: saline with Tween-80 177 % of control and 187 % of control
inactive: endpoint: mean survival time, dose: 79.0 mg/kg/injection, schedule: Q04DX003 (ip), vehicle: saline with Tween-80 122 % of control | [10] 113 % of control

BrCC[n+]1ccc(-c2cc[n+](CCBr)cc2)cc1
inactive: endpoint: mean survival time, dose: 10.0 mg/kg/injection, schedule: Q01DX001 (ip), vehicle: Klucel (hydroxypropylcellulose) (HPC) 110 % of control | endpoint: mean survival time, dose: 20.0 mg/kg/injection, schedule: Q01DX001 (ip), vehicle: Klucel (hydroxypropylcellulose) (HPC) 93 % of control | endpoint: mean survival time, dose: 40.0 mg/kg/injection, schedule: Q01DX001 (ip), vehicle: Klucel (hydroxypropylcellulose) (HPC) 98 % of control

CC(=O)CC(C)=O.CC(=O)CC(C)=O.[Pd]
inactive: endpoint: mean survival time, dose: 6.25 mg/kg/injection, schedule: Q04DX002 (ip), vehicle: saline with Tween-80 96 % of control | [11] 87 % of control

c1cc2c3c(c4sc5ccccc5c4cc3c1)CC2
inactive: endpoint: mean survival time, dose: 12.5 mg/kg/injection, schedule: Q04DX003 (ip), vehicle: other 101 % of control | [12] 115 % of control | [13] 108 % of control | [14] 115 % of control | [15] 108 % of control

C/C=C1/C[C@@H](C)[C@@](C)(O)C(=O)OCC2=CC[N+]3([O-])CC[C@@H](OC1=O)[C@@H]23 (stereo partly drawn)
inactive: [4] 103 % of control | [5] 97 % of control

CCOC(=O)CC(=O)c1ccc(C)cc1
inactive: [8] 96 % of control | [9] 105 % of control | [16] 89 % of control

O=C1N[C@H]2[C@H](O)[C@H](O)[C@@H](O)[C@H](O)[C@@H]2c2cc3c(c(O)c21)OCO3
inactive: endpoint: median survival time, dose: 0.38 mg/kg/injection, schedule: Q01DX009 (ip), vehicle: saline + alcohol 120 % of control | endpoint: median survival time, dose: 0.75 mg/kg/injection, schedule: Q01DX009 (ip), vehicle: saline + alcohol 122 % of control | endpoint: median survival time, dose: 1.5 mg/kg/injection, schedule: Q01DX009 (ip), vehicle: saline + alcohol 121 % of control

c1ccc(C[N+]23CCN(CC2)CC3)cc1
inactive: endpoint: mean survival time, dose: 12.5 mg/kg/injection, schedule: Q04DX003 (ip), vehicle: saline 98 % of control | endpoint: mean survival time, dose: 25.0 mg/kg/injection, schedule: Q04DX003 (ip), vehicle: saline 98 % of control | endpoint: mean survival time, dose: 50.0 mg/kg/injection, schedule: Q04DX003 (ip), vehicle: saline 101 % of control

CC(C)(C)/C=C\C=C\C(C)(C)C
inactive: [7] 100 % of control | [8] 103 % of control | [9] 92 % of control

CC(C)/C(=N\Nc1ccc([N+](=O)[O-])cc1[N+](=O)[O-])c1ccccc1
inactive: [8] 97 % of control | [9] 101 % of control | [16] 103 % of control

CC(=O)N(C1=CC(=O)c2ccccc2C1=O)c1ccc(C)cc1
inactive: endpoint: mean survival time, dose: 75.0 mg/kg/injection, schedule: Q01DX001 (ip), vehicle: saline 100 % of control | endpoint: mean survival time, dose: 150.0 mg/kg/injection, schedule: Q01DX001 (ip), vehicle: saline 100 % of control

CCOC(=O)C(O)(C(=O)OCC)c1ccc(C)cc1
inactive: [8] 97 % of control | [10] 102 % of control | [9] 97 % of control | [17] 100 % of control | [16] 97 % of control | [18] 100 % of control

CC(=O)N(C)c1ccc(NC(=O)Nc2ccc(C)cc2[N+](=O)[O-])cc1
inactive: endpoint: mean survival time, dose: 100.0 mg/kg/injection, schedule: Q01DX009 (ip), vehicle: Klucel (hydroxypropylcellulose) (HPC) 95 % of control | endpoint: mean survival time, dose: 200.0 mg/kg/injection, schedule: Q01DX009 (ip), vehicle: Klucel (hydroxypropylcellulose) (HPC) 92 % of control | endpoint: mean survival time, dose: 400.0 mg/kg/injection, schedule: Q01DX009 (ip), vehicle: Klucel (hydroxypropylcellulose) (HPC) 92 % of control

CC(=O)Nc1ccc(-c2c(NCCO)ncc3ccccc23)cc1
inactive: [12] 104 % of control | [13] 98 % of control | [14] 98 % of control | [15] 104 % of control

COC(=O)C(NC=O)C(=O)OC
inactive: endpoint: mean survival time, dose: 100.0 mg/kg/injection, schedule: Q01DX009 (ip), vehicle: saline 105 % of control | endpoint: mean survival time, dose: 100.0 mg/kg/injection, schedule: Q04DX003 (ip), vehicle: saline 93 % of control | endpoint: mean survival time, dose: 200.0 mg/kg/injection, schedule: Q01DX009 (ip), vehicle: saline 107 % of control | endpoint: mean survival time, dose: 200.0 mg/kg/injection, schedule: Q04DX003 (ip), vehicle: saline 101 % of control | endpoint: mean survival time, dose: 400.0 mg/kg/injection, schedule: Q01DX009 (ip), vehicle: saline 117 % of control | endpoint: mean survival time, dose: 400.0 mg/kg/injection, schedule: Q04DX003 (ip), vehicle: saline 95 % of control

CC1=C(C)C2(C)C(C)C2(C)C1C (stereo not drawn)
inactive: [10] 90 % of control | [17] 110 % of control | [18] 98 % of control

O=S(=O)(O)c1ccc2c(N=Nc3ccccc3[As](=O)(O)O)c(O)c(S(=O)(=O)O)cc2c1
inactive: [8] 96 % of control | [10] 104 % of control | [9] 100 % of control | [17] 94 % of control | [18] 98 % of control

CCCCCCCCCCCCCCCCNS(=O)(=O)c1ccc2sc(SC)nc2c1
inactive: [11] 93 % of control | [19] 93 % of control

C1SCc2c1c1c(c3c2CSC3)CSC1
inactive: [4] 87 % of control | [6] 87 % of control

CC(C)NC(=O)C1C2CCC(CC2)C1C(=O)NC(C)C (stereo not drawn)
inactive: [10] 98 % of control | [17] 98 % of control | [18] 95 % of control

CC(C)(C)C1=CC(=CN(O)C(C)(C)C)C=C(C(C)(C)C)C1=O
inactive: [4] 100 % of control | [5] 103 % of control | [6] 100 % of control

CC(=O)OC1CSC(C(C)(C)C)SC1 (stereo not drawn)
inactive: [11] 102 % of control | [19] 102 % of control | endpoint: mean survival time, dose: 50.0 mg/kg/injection, schedule: Q04DX002 (ip), vehicle: saline with Tween-80 108 % of control

OC(c1ccccc1)c1nc2ccccc2[nH]1 (stereo not drawn)
inactive: [8] 98 % of control | [10] 101 % of control | [9] 95 % of control | [17] 96 % of control | [16] 96 % of control | [18] 100 % of control

COc1ccc2nc3cc(Cl)ccc3c(Nc3cccc(NS(C)(=O)=O)c3)c2n1
inactive: endpoint: mean survival time, dose: 12.5 mg/kg/injection, schedule: Q01DX009 (ip), vehicle: other 100 % of control | [1] 93 % of control | [2] 89 % of control | [3] 93 % of control | endpoint: mean survival time, dose: 200.0 mg/kg/injection, schedule: Q01DX009 (ip), vehicle: other 93 % of control

O=C(Nc1cccc(F)c1)c1c(O)[nH]c(=S)[nH]c1=O
active: endpoint: median survival time, dose: 200.0 mg/kg/injection, schedule: Q01DX009 (ip), vehicle: saline with Tween-80 155 % of control
inactive: endpoint: median survival time, dose: 25.0 mg/kg/injection, schedule: Q01DX009 (ip), vehicle: saline with Tween-80 114 % of control and 106 % of control | endpoint: median survival time, dose: 50.0 mg/kg/injection, schedule: Q01DX009 (ip), vehicle: saline with Tween-80 113 % of control and 114 % of control | endpoint: median survival time, dose: 100.0 mg/kg/injection, schedule: Q01DX009 (ip), vehicle: saline with Tween-80 117 % of control

NC(N)=NC(=S)Nc1ccccc1
inactive: [4] 118 % of control | [5] 103 % of control | [6] 118 % of control

CC(C)(C)OC(=O)NC(=O)CCC(N)C(=O)O (stereo not drawn)
inactive: [10] 94 % of control | [17] 91 % of control | [18] 92 % of control
